# Measured values taken from US20240228535A1 (priority 2022, published 2024).
# Target: SARS2 coronavirus 3CL protease (Severe acute respiratory syndrome coronavirus 2, UniProt P0DTD1)
# Experiment: biochemical
# Details: 5 nM enzyme, 30 min pre-incubation with compound, 15 μM peptide substrate, 4 h at room temperature; read-out: FRET Potency (nM); IC50 values in the SARS2 3CLPro FRET assay
row,SMILES,IC50 [nM]
1,"CNC(=O)C(=O)[C@H](C[C@@H]1CCNC1=O)NC(=O)c1cc(F)ccc1NC(=O)c1ccnc(C(F)(F)F)c1 [Example 196, N-[4-fluoro-2-[[(1S)-3-(methylamino)-2,3-dioxo-1-[[(3S)-2-oxopyrrolidin-3-yl]methyl]propyl]carbamoyl]phenyl]-2-(trifluoromethyl)pyridine-4-carboxamide]",7.6
2,"CO[C@H](C)C(=O)Nc1ccc(Cl)cc1C(=O)N[C@@H](C[C@@H]1C[C@@H](C)NC1=O)C(=O)C(=O)NC1CC1 [Example 164, 5-chloro-N-[(1S)-3-(cyclopropylamino)-1-[[(3S,5R)-5-methyl-2-oxo-pyrrolidin-3-yl]methyl]-2,3-dioxo-propyl]-2-[[(2R)-2-methoxypropanoyl]amino] benzamide]",4.8
3,"O=C(NC1CC1)C(=O)[C@H](C[C@@H]1CCNC1=O)NC(=O)c1cc(F)ccc1NC(=O)C1(C(F)(F)F)CC1 [Example 12, N-[(1S)-3-(cyclopropylamino)-2,3-dioxo-1-[[(3S)-2-oxopyrrolidin-3-yl]methyl]propyl]-5-fluoro-2-[[1-(trifluoromethyl)cyclopropane-carbonyl]amino]benzamide]",48.2
4,"CNC(=O)C(=O)[C@H](C[C@@H]1CCNC1=O)NC(=O)c1cc(Cl)ccc1NC(=O)[C@H]1CC1(F)F [Example 143, 5-chloro-2-[[(1R)-2,2-difluorocyclopropanecarbonyl]amino]-N-[(1S)-3-(methylamino)-2,3-dioxo-1-[[(3S)-2-oxopyrrolidin-3-yl]methyl]propyl]benzamide]",3
5,"C[C@@H]1C[C@@H](C[C@H](NC(=O)c2cc(Cl)ccc2NC(=O)c2cncc(C(F)(F)F)c2)C(=O)C(=O)NC2CC2)C(=O)N1 [Example 94, N-[4-chloro-2-[[(1S)-3-(cyclopropylamino)-1-[[(3S,5R)-5-methyl-2-oxo-pyrrolidin-3-yl]methyl]-2,3-dioxo-propyl]carbamoyl]phenyl]-5-(trifluoromethyl)pyridine-3-carboxamide]",10.6
6,"CNC(=O)C(=O)[C@H](C[C@@H]1C[C@@H](C)NC1=O)NC(=O)c1cc(Cl)ccc1NC(=O)C1CC(F)(F)C1 [Example 21, 5-chloro-2-[(3,3-difluorocyclobutanecarbonyl)amino]-N-[(1S)-3-(methylamino)-1-[[(3S,5R)-5-methyl-2-oxo-pyrrolidin-3-yl]methyl]-2,3-dioxo-propyl]benzamide]",24.9
7,"CNC(=O)C(=O)[C@H](C[C@@H]1C[C@@H](C)NC1=O)NC(=O)c1cc(C(F)F)ccc1NC(=O)OC [Example 130, methyl N-[4-(difluoromethyl)-2-[[(1S)-3-(methylamino)-1-[[(3S,5R)-5-methyl-2-oxo-pyrrolidin-3-yl]methyl]-2,3-dioxo-propyl]carbamoyl]phenyl] carbamate]",20.7
8,"CNC(=O)C(=O)[C@H](C[C@@H]1C[C@@H](C)NC1=O)NC(=O)c1cc(Cl)c(Cl)cc1NC(=O)OC [Example 144, methyl N-[4,5-dichloro-2-[[(1S)-3-(methylamino)-1-[[(3S,5R)-5-methyl-2-oxo-pyrrolidin-3-yl]methyl]-2,3-dioxo-propyl]carbamoyl]phenyl] carbamate]",5.3
9,"C[C@@H]1C[C@@H](C[C@H](NC(=O)c2cc(C(F)F)ccc2NC(=O)c2cccc(C(F)(F)F)c2)C(=O)C(=O)NC2CC2)C(=O)N1 [Example 44, N-[(1S)-3-(cyclopropylamino)-1-[[(3S,5R)-5-methyl-2-oxo-pyrrolidin-3-yl]methyl]-2,3-dioxo-propyl]-5-(difluoromethyl)-2-[[3-(trifluoromethyl)benzoyl]amino]benzamide]",9.4
10,"O=C(NC1CC1)C(=O)[C@H](C[C@@H]1CCNC1=O)NC(=O)c1cc(Cl)ccc1NC(=O)C(F)(F)F [Example 51, 5-chloro-N-[(1S)-3-(cyclopropylamino)-2,3-dioxo-1-[[(3S)-2-oxopyrrolidin-3-yl]methyl]propyl]-2-[(2,2,2-trifluoroacetyl)amino] benzamide]",8.6
11,"CNC(=O)C(=O)[C@H](C[C@@H]1C[C@@H](C)NC1=O)NC(=O)c1cc(Cl)c(F)cc1NC(=O)OC1CC1 [Example 154, cyclopropyl N-[4-chloro-5-fluoro-2-[(1S)-3-(methylamino)-1-[[(3S,5R)-5-methyl-2-oxo-pyrrolidin-3-yl]methyl]-2,3-dioxo-propyl]carbamoyl]phenyl] carbamate]",4.5
12,CNC(=O)C(=O)[C@H](C[C@@H]1CCNC1=O)NC(=O)c1cc(Cl)ccc1NC(=O)OC [Example 106],4.3
13,"CNC(=O)C(=O)[C@H](C[C@@H]1C[C@@H](C)NC1=O)NC(=O)c1cc(Cl)ccc1NC(=O)c1ccc(C(F)(F)F)nc1 [Example 76, N-[4-chloro-2-[[(1S)-3-(methylamino)-1-[[(3S,5R)-5-methyl-2-oxo-pyrrolidin-3-yl]methyl]-2,3-dioxo-propyl]carbamoyl]phenyl]-6-(trifluoromethyl)pyridine-3-carboxamide]",5.3
14,C[C@@H]1C[C@@H](C[C@H](NC(=O)c2cc(C#N)ccc2NC(=O)C23CC(F)(C2)C3)C(=O)C(=O)NC2CC2)C(=O)N1 [Example 13],46.7
15,"CNC(=O)C(=O)[C@H](C[C@@H]1C[C@@H](C)NC1=O)NC(=O)c1cc(Cl)ccc1NC(=O)OC(C)C [Example 31, isopropyl N-[4-chloro-2-[[(1S)-3-(methylamino)-1-[[(3S,5R)-5-methyl-2-oxo-pyrrolidin-3-yl]methyl]-2,3-dioxo-propyl]carbamoyl]phenyl] carbamate]",12.4
16,"CC(OC(=O)Nc1ccc(Cl)cc1C(=O)N[C@@H](C[C@@H]1C[C@@H](C)NC1=O)C(=O)C(=O)NC1CC1)C(F)(F)F (stereo partly drawn) [Example 211, (2,2,2-trifluoro-1-methyl-ethyl) N-[4-chloro-2-[[(1S)-3-(cyclopropylamino)-1-[[(3S,5R)-5-methyl-2-oxo-pyrrolidin-3-yl]methyl]-2,3-dioxo-propyl]carbamoyl]phenyl] carbamate]",7.3
17,O=C(NC1CC1)C(=O)[C@H](C[C@@H]1CCNC1=O)NC(=O)c1cc(Cl)ccc1NC(=O)[C@H]1CC1(F)F [Example 168],12
18,"[2H]C([2H])([2H])OC(=O)Nc1ccc(Cl)cc1C(=O)N[C@@H](C[C@@H]1CCNC1=O)C(=O)C(=O)NC1CC1 [Example 124, trideuteriomethyl N-[4-chloro-2-[[(1S)-3-(cyclopropylamino)-2,3-dioxo-1-[[(3S)-2-oxopyrrolidin-3-yl]methyl]propyl]carbamoyl]phenyl]carbamate]",8.2
19,"CNC(=O)C(=O)[C@H](C[C@@H]1C[C@@H](C)NC1=O)NC(=O)c1cc(Cl)ccc1NC(=O)C1CCC(F)(F)C1 (single isomer, unassigned) [Example 65]",7.2
20,"CCOC(=O)Nc1ccc(Cl)cc1C(=O)N[C@@H](C[C@@H]1C[C@@H](C)NC1=O)C(=O)C(=O)NC [Example 129, ethyl N-[4-chloro-2-[[(1S)-3-(methylamino)-1-[[(3S,5R)-5-methyl-2-oxo-pyrrolidin-3-yl]methyl]-2,3-dioxo-propyl]carbamoyl]phenyl] carbamate]",5.9
21,"CNC(=O)C(=O)[C@H](C[C@@H]1CCNC1=O)NC(=O)c1cc(C(F)(F)F)ccc1NC(=O)C1(C(F)(F)F)CC1 [Example 95, N-[(1S)-3-(methylamino)-2,3-dioxo-1-[[(3S)-2-oxopyrrolidin-3-yl]methyl]propyl]-5-(trifluoromethyl)-2-[[1-(trifluoromethyl)cyclopropane-carbonyl]amino]benzamide]",44.7
